How the values were obtained:
[1] = target: T1, Xanthine dehydrogenase/oxidase (Homo sapiens, UniProt P47989); assay: Inhibitory activity against Xanthine Oxidase
[2] = target: Xanthine dehydrogenase/oxidase (Bos taurus) (UniProt P80457); assay: Inhibitory activity against Xanthine Oxidase
[3] = target: T1, Xanthine dehydrogenase/oxidase; assay: Inhibitory activity against Xanthine Oxidase; Inactive

T1 sequence (P47989 whole entry): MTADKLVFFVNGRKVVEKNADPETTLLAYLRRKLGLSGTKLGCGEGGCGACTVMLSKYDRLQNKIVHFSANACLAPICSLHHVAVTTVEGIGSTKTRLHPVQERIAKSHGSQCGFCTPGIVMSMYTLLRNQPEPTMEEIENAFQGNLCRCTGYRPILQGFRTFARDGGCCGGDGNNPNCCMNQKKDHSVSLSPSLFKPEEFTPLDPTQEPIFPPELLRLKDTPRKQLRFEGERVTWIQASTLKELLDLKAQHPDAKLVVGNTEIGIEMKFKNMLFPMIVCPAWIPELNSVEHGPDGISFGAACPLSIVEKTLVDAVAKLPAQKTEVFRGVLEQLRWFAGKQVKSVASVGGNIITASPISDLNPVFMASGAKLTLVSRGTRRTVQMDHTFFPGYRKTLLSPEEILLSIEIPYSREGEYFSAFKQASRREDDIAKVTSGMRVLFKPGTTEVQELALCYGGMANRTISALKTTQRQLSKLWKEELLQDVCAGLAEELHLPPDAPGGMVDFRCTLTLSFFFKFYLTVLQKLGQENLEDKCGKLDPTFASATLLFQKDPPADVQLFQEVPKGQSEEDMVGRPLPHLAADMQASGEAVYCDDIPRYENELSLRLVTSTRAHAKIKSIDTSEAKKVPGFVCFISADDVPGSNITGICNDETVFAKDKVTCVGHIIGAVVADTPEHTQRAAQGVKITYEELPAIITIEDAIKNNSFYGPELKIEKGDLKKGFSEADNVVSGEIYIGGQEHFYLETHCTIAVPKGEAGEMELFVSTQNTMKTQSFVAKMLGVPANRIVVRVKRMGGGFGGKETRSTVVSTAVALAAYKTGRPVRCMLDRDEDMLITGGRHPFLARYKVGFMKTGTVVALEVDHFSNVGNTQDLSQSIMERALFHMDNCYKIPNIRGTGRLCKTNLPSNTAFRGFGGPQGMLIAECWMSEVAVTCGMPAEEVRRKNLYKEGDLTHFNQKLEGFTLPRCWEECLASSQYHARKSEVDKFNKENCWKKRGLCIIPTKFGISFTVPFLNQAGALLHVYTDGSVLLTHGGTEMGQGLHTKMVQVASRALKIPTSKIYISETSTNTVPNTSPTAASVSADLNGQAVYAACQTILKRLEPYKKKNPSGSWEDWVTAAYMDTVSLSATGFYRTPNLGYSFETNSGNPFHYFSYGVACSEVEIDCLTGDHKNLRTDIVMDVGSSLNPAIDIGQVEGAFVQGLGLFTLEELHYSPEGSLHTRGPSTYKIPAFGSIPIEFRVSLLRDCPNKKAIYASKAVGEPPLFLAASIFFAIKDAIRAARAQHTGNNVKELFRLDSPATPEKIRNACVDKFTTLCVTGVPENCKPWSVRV
Sequence of Xanthine dehydrogenase/oxidase (Bos taurus) (P80457 whole entry, looked up): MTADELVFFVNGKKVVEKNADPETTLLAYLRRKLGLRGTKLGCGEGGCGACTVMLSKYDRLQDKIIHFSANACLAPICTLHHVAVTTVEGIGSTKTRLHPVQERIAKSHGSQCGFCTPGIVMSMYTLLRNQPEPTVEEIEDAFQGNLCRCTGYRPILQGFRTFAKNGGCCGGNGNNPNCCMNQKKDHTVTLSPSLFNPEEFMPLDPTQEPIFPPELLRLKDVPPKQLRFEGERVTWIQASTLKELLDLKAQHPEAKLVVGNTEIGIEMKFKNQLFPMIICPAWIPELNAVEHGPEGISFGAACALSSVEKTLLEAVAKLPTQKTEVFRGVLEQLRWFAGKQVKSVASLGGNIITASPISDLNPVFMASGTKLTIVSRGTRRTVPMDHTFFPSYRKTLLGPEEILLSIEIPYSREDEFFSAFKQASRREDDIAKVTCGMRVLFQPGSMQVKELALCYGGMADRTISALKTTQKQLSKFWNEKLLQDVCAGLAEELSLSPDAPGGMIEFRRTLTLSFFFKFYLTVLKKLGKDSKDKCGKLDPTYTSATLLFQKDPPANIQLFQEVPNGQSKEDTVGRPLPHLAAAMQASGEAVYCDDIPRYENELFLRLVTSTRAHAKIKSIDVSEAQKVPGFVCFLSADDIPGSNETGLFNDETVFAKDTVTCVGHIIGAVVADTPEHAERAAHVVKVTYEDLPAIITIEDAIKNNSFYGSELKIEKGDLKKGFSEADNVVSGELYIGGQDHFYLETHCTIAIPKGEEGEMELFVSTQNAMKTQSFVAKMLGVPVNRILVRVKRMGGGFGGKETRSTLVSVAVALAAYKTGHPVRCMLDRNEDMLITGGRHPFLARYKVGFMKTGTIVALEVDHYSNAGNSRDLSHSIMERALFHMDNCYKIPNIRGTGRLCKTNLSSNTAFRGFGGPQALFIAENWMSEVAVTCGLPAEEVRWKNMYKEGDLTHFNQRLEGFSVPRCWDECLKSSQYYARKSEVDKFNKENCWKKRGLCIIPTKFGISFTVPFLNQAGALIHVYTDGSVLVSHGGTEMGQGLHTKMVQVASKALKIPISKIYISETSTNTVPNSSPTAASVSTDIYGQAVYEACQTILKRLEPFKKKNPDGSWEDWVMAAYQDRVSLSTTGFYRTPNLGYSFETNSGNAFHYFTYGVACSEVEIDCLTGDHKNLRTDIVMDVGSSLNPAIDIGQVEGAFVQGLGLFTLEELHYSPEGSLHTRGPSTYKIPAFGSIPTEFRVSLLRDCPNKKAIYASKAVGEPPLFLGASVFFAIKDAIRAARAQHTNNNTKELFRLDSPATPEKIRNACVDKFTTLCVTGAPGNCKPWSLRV

Compound | Ki [1] [µM] | IC50 [1] [µM] | other results
Oc1nc2nc(O)n3c(c-2n1)SCC3 | 1.26 |  | 
CCCCCC(=O)Nc1nc[nH]c1C(N)=O | 2.56 | 12.6 | 
Oc1nc2nc(O)n3c(c-2n1)SCCC3 | 0.33 |  | 
CCCCCCOC(=O)C(=O)Nc1nc[nH]c1C(N)=O | 0.26 | 1.11 | 
Oc1c2nc(S)nc-2nc2n1CCS2 | 24.4 |  | 
Oc1nc2nc3n(c(O)c-2n1)CCS3 | 40.3 |  | 
CC1CSc2nc3nc(O)nc-3c(O)n2C1 (stereo not drawn) | > 100 |  | 
Oc1nc2nnnc-2c2n1CCCS2 | > 100 |  | 
Oc1nc2nc3n(c(O)c-2n1)CCCS3 | 66.8 |  | 
Oc1nc2nc(S)nc-2c2n1CCCS2 |  |  | Ki [2]: 0.89 µM
CC1CSc2nc3nc(S)nc-3c(O)n2C1 (stereo not drawn) | > 100 |  | 
CCCCCSc1nc(N)cc(O)n1 |  |  | IC50 [3]: Not Active
Oc1c2nc(S)nc-2nc2n1CCCS2 | 131 |  | 
CCCCCC(=O)Nc1nc(O)c2[nH]cnc2n1 |  |  | IC50 [3]: Not Active
CCCCCOC(=O)C(=O)Nc1[nH]cnc1C(N)=O | 1.04 | 1.92 | 
CCCCCCSc1nc(N)cc(O)n1 |  |  | IC50 [3]: Not Active
CCCCSc1nc(N)cc(O)n1 |  |  | IC50 [3]: Not Active
CCCCOC(=O)C(=O)Nc1nc[nH]c1C(N)=O | 1.06 | 4.29 | 
CCCCc1nc(O)c2c[nH]nc2n1 |  | > 100 | 
O=S1(=O)CCCn2c1nc1nc(O)nc-1c2O |  |  | Ki [3]: Not Active
CCCCC(=O)Nc1nc(O)c2[nH]cnc2n1 |  |  | IC50 [3]: Not Active

Second part, led by results:

Ki [1] [µM] | IC50 [1] [µM] | Compound | other results
 | > 100 | CCCCCc1nc2n[nH]cc2c(=O)[nH]1 | 
25.7 | 28.3 | CCCCCNc1nc2nc[nH]c2c(=O)[nH]1 | 
1.86 |  | O=c1nc2[nH]c(=S)[nH]c2c2n1CCS2 | 
 | > 100 | CCCCCCSc1nc(N)c(NC=O)c(=O)[nH]1 | 
 | > 100 | CCCCCSc1nc(N)c(NC=O)c(=O)[nH]1 | 
5.7 |  | CSc1nc2nc(-c3ccccc3)[nH]c2c(=O)[nH]1 | 
32.1 | 30.5 | CCCCCCNc1nc(O)c2[nH]cnc2n1 | 
2.07 |  | O=c1[nH]c(=S)[nH]c2nc(-c3ccccc3)[nH]c12 | 
 | > 100 | CCCc1nc2n[nH]cc2c(=O)[nH]1 | 
 | > 100 | CCCC(=O)Nc1nc2nc[nH]c2c(=O)[nH]1 | 
93 |  | Oc1nc2nc(-c3ccccc3)nc-2c2n1CCCS2 | 
 | > 100 | CCCCSc1nc(N)c(NC=O)c(=O)[nH]1 | 
17.7 | 25.5 | CCCCNc1nc(O)c2[nH]cnc2n1 | 
 | > 100 | CCc1nc(O)c2c[nH]nc2n1 | 
0.16 |  | CCCCCCSc1nc(O)c2[nH]c(O)nc2n1 | 
0.48 |  | CCCCCCSc1nc2nc(-c3ccccc3)[nH]c2c(=O)[nH]1 | 
0.176 | 3.88 | CCCCSc1nc2nc[nH]c2c(=O)[nH]1 | 
4.49 |  | O=c1[nH]c2nc(SCc3ccccc3)[nH]c(=O)c2[nH]1 | 
77.8 |  | O=c1[nH]c2nc(S(=O)(=O)Cc3ccccc3)[nH]c(=O)c2[nH]1 | 

— ChEMBL document CHEMBL1129352, “Synthesis and biological evaluation of new imidazole, pyrimidine, and purine derivatives and analogs as inhibitors of xanthine oxidase” (J Med Chem, 1996)
